The results in this text go back to PubChem BioAssay AID1387 (Sanford-Burnham Center for Chemical Genomics, 2008).

For the test, the system named is CSM14.1 cells, thapsigargin, p-p38/p38 MSD immunoassay. The test is described as follows: p-p38/p38 reduction after thapsigargin stress – cell lysate, CSM14.1 cells, immunoblotting, mechanism study for ER stress cell death project, dose response (AID 1387). The note with it: at 10 µM (top of the series). In general terms: In western blotting, separated proteins are transferred to a membrane and probed.

On to `COc1ccc(C2CC(=O)C3=C(C2)Nc2ccccc2NC3c2cccc(Oc3ccccc3)c2)cc1OC` (stereo unspecified), for which the relative p-p38/p38 ratio, lower = inhibition is 0.
